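Values below derive from 48-hour exposures of cells grown in 96-well plates, with endpoints linearly interpolated between the two concentrations bracketing the appropriate inhibition level. GI50 marks 50% less growth.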 The source made the active and inactive calls. Rule as the data show it: active = GI50 up to about 1.1 µM and inactive = higher.
Tests used:
Assay in all cases: NCI-60 cell line screen, 48 h
HT-29 = tested on: HT-29
IGROV-1 = tested on: IGROV-1
MDA-N = tested on: MDA-N
SK-MEL-2 = tested on: SK-MEL-2
SR = tested on: SR
HCC 2998 = tested on: HCC 2998
MOLT-4 = tested on: MOLT-4
SNB-75 = tested on: SNB-75
SF-268 = tested on: SF-268
NCI-H460 = tested on: NCI-H460
SN12C = tested on: SN12C
786-0 = tested on: 786-0
SK-OV-3 = tested on: SK-OV-3
MDA-MB-231 = tested on: MDA-MB-231
NCI-H23 = tested on: NCI-H23
Malme-3M = tested on: Malme-3M
ACHN = tested on: ACHN
LOX IMVI = tested on: LOX IMVI
HOP-62 = tested on: HOP-62
EKVX = tested on: EKVX
NCI-H226 = tested on: NCI-H226
RXF 393 = tested on: RXF 393
UACC-257 = tested on: UACC-257
A549 = tested on: A549
HL-60 = tested on: HL-60
OVCAR-4 = tested on: OVCAR-4
UACC-62 = tested on: UACC-62
SK-MEL-5 = tested on: SK-MEL-5
COLO 205 = tested on: COLO 205
T47D = tested on: T47D
SF-295 = tested on: SF-295
M14 = tested on: M14
BT-549 = tested on: BT-549
NCI-H522 = tested on: NCI-H522
TK-10 = tested on: TK-10
SNB-19 = tested on: SNB-19
UO-31 = tested on: UO-31
OVCAR-8 = tested on: OVCAR-8
NCI/ADR-RES = tested on: NCI/ADR-RES
CCRF-CEM = tested on: CCRF-CEM
SK-MEL-28 = tested on: SK-MEL-28
SW-620 = tested on: SW-620
Hs-578T = tested on: Hs-578T
OVCAR-5 = tested on: OVCAR-5
RPMI-8226 = tested on: RPMI-8226
CAKI-1 = tested on: CAKI-1
KM12 = tested on: KM12
U-251 = tested on: U-251
SF-539 = tested on: SF-539
HCT-15 = tested on: HCT-15
K562 = tested on: K562
DU-145 = tested on: DU-145
MCF7 = tested on: MCF7
PC-3 = tested on: PC-3
HCT-116 = tested on: HCT-116
A498 = tested on: A498
OVCAR-3 = tested on: OVCAR-3
HOP-92 = tested on: HOP-92
MDA-MB-435 = tested on: MDA-MB-435

For O=C1CCc2cc3c(cc21)C(C(=O)O)CC3 (centres undefined), the GI50 (HT-29) was > 100 µM (inactive), the GI50 (IGROV-1) was > 100 µM (inactive) and the GI50 (MDA-N) was > 100 µM (inactive). The GI50 (SK-MEL-2) was > 100 µM (inactive), the GI50 (SR) was > 100 µM (inactive) and the GI50 (HCC 2998) was > 100 µM (inactive). For the same compound, the GI50 (MOLT-4) was > 100 µM (inactive), the GI50 (SNB-75) was 87.5 µM (inactive) and the GI50 (SF-268) was > 100 µM (inactive). The GI50 (NCI-H460) was > 100 µM (inactive), the GI50 (SN12C) was > 100 µM (inactive) and the GI50 (786-0) was > 100 µM (inactive). The GI50 (SK-OV-3) was > 100 µM (inactive), the GI50 (MDA-MB-231) was > 100 µM (inactive) and the GI50 (NCI-H23) was > 100 µM (inactive). For the same compound, the GI50 (Malme-3M) was > 100 µM (inactive), the GI50 (ACHN) was > 100 µM (inactive) and the GI50 (LOX IMVI) was > 100 µM (inactive). For the same compound, the GI50 (HOP-62) was > 100 µM (inactive), the GI50 (EKVX) was > 100 µM (inactive) and the GI50 (NCI-H226) was > 100 µM (inactive). The GI50 (RXF 393) was 30.8 µM (inactive), the GI50 (UACC-257) was > 100 µM (inactive) and the GI50 (A549) was > 100 µM (inactive). The GI50 (HL-60) was > 100 µM (inactive), the GI50 (OVCAR-4) was > 100 µM (inactive) and the GI50 (UACC-62) was > 100 µM (inactive). The GI50 (SK-MEL-5) was > 100 µM (inactive), the GI50 (COLO 205) was > 100 µM (inactive) and the GI50 (T47D) was > 100 µM (inactive). For the same compound, the GI50 (SF-295) was > 100 µM (inactive), the GI50 (M14) was > 100 µM (inactive) and the GI50 (BT-549) was > 100 µM (inactive). For the same compound, the GI50 (NCI-H522) was > 100 µM (inactive), the GI50 (TK-10) was > 100 µM (inactive) and the GI50 (SNB-19) was > 100 µM (inactive). For the same compound, the GI50 (UO-31) was > 100 µM (inactive), the GI50 (OVCAR-8) was > 100 µM (inactive) and the GI50 (NCI/ADR-RES) was > 100 µM (inactive). For the same compound, the GI50 (CCRF-CEM) was > 100 µM (inactive), the GI50 (SK-MEL-28) was > 100 µM (inactive) and the GI50 (SW-620) was > 100 µM (inactive). For the same compound, the GI50 (Hs-578T) was > 100 µM (inactive), the GI50 (OVCAR-5) was > 100 µM (inactive) and the GI50 (RPMI-8226) was > 100 µM (inactive). The GI50 (CAKI-1) was > 100 µM (inactive), the GI50 (KM12) was > 100 µM (inactive) and the GI50 (U-251) was > 100 µM (inactive). The GI50 (SF-539) was > 100 µM (inactive), the GI50 (HCT-15) was over 100 µM and the GI50 (K562) was > 100 µM (inactive). For the same compound, the GI50 (DU-145) was > 100 µM (inactive), the GI50 (MCF7) was > 100 µM (inactive) and the GI50 (PC-3) was > 100 µM (inactive). For the same compound, the GI50 (HCT-116) was > 100 µM (inactive).
COc1cc(Nc2nc3cc(C(F)(F)F)ccc3nc2C(=O)O)cc(OC)c1OC was tested, and the GI50 (HT-29) was 49.7 µM (inactive), the GI50 (IGROV-1) was 66.1 µM (inactive) and the GI50 (MDA-N) was 33.3 µM (inactive). For the same compound, the GI50 (SK-MEL-2) was 19.1 µM (inactive), the GI50 (HCC 2998) was 61 µM (inactive) and the GI50 (MOLT-4) was 39.7 µM (inactive). For the same compound, the GI50 (SNB-75) was 10.6 µM (inactive), the GI50 (SF-268) was 43.9 µM (inactive) and the GI50 (NCI-H460) was 58.1 µM (inactive). The GI50 (SN12C) was 51.2 µM (inactive), the GI50 (786-0) was 52.8 µM (inactive) and the GI50 (MDA-MB-231) was 21.8 µM (inactive). For the same compound, the GI50 (NCI-H23) was 45.1 µM (inactive), the GI50 (Malme-3M) was 54.1 µM (inactive) and the GI50 (A498) was 77.8 µM (inactive). The GI50 (ACHN) was 65.6 µM (inactive), the GI50 (LOX IMVI) was 32.1 µM (inactive) and the GI50 (HOP-62) was 44.3 µM (inactive). For the same compound, the GI50 (EKVX) was 33.3 µM (inactive), the GI50 (OVCAR-3) was 29.7 µM (inactive) and the GI50 (NCI-H226) was 32.9 µM (inactive). For the same compound, the GI50 (RXF 393) was 28.9 µM (inactive), the GI50 (UACC-257) was > 100 µM (inactive) and the GI50 (A549) was 64.4 µM (inactive). The GI50 (HL-60) was 55.2 µM (inactive), the GI50 (OVCAR-4) was > 100 µM (inactive) and the GI50 (UACC-62) was 39.8 µM (inactive). For the same compound, the GI50 (SK-MEL-5) was 49 µM (inactive), the GI50 (COLO 205) was 45.5 µM (inactive) and the GI50 (T47D) was 22.5 µM (inactive). The GI50 (SF-295) was 27.2 µM (inactive), the GI50 (M14) was 40.6 µM (inactive) and the GI50 (BT-549) was 34.9 µM (inactive). The GI50 (NCI-H522) was 30.9 µM (inactive), the GI50 (TK-10) was 51.3 µM (inactive) and the GI50 (SNB-19) was 41.5 µM (inactive). The GI50 (HOP-92) was 29.6 µM (inactive), the GI50 (UO-31) was 42.7 µM (inactive) and the GI50 (OVCAR-8) was 43.8 µM (inactive). The GI50 (NCI/ADR-RES) was 41.7 µM (inactive), the GI50 (CCRF-CEM) was 29.4 µM (inactive) and the GI50 (SK-MEL-28) was 69.2 µM (inactive). The GI50 (SW-620) was 71.9 µM (inactive), the GI50 (Hs-578T) was 31.7 µM (inactive) and the GI50 (OVCAR-5) was > 100 µM (inactive). The GI50 (CAKI-1) was 30.7 µM (inactive), the GI50 (KM12) was 41.5 µM (inactive) and the GI50 (MDA-MB-435) was 45.6 µM (inactive). For the same compound, the GI50 (U-251) was 36.6 µM (inactive), the GI50 (SF-539) was 43.6 µM (inactive) and the GI50 (HCT-15) was 39.6 µM. For the same compound, the GI50 (DU-145) was 35.1 µM (inactive), the GI50 (MCF7) was 66.5 µM (inactive) and the GI50 (HCT-116) was 32.7 µM (inactive).
